Data published in US10596193B2, “Copper (I) complexes with glycine, pyruvate, and succinate” (C LAB PHARMA INTERNATIONAL, S.A., priority 2013, dated 2020).

Test system: lymphoblasts from autistic donors with mitochondrial dysfunction (A)
Details: 500 μM copper (I) glycinate, measured by oxygen consumption rate, vs cells without the copper (I) complex, FIG. 17 panel B
Description: ATP-linked respiration, proton leak, maximal respiratory capacity, and reserve capacity were determined as measured by the cells' oxygen consumption rate.

With `NCC(=O)[O-].[Cu+]` [copper (I) glycinate] as the compound, how does the proton leak read?
The proton leak was “significantly reduced proton leak”.
